Measurements taken from US11760784B2, “Compositions comprising PEDF-derived short peptides and uses thereof” (BRIM Biotechnology, Inc., priority 2016, dated 2023).

Key:
[1] = test system: desiccating stress-induced dry eye; test: Corneal fluorescein staining in desiccating stress-induced dry eye (CEC) mice; assay type: in vivo, C57BL/6 mice
Description: In an animal model for dry eye diseases, mice were placed in a controlled environment chamber (CEC) to induce dry eyes as previously described (Barabino et al., 2005). Mice placed in the CEC were exposed to a relative humidity (RH)<25%, temperature of 20 to 22° C., with an airflow of 15 L/min, 12 hours per day. Non-Stressed mice were kept in a normal environment (RH >50%, no air flow, temperature of 21-23° C.) for the same duration. After 14 days, non-stressed mice were treated with vehicle, while the stressed mice were treated with either a test peptide (e.g., the 29mer PDSP) or vehicle solution (Vehicle group) for 5 days. Then, the cornea was examined with fluorescein staining.
Seven to 8-week-old female C57BL/6 mice were used for these experiments. Experimental procedures were approved by the Mackay Memorial Hospital Review Board and conducted according to the ARVO Statement for the Use of Animals in Ophthalmic and Vision Research.
Dry eye was induced by placing mice in a controlled environment chamber (CEC) as previously described (Barabino et al., 2005). Briefly, mice placed in the CEC were exposed to a relative humidity (RH)<25%, temperature of 20 to 22° C., and airflow of 15 L/min, 12 hours per day. Non-stressed (NS) mice without stress-induced dry eye were kept in a normal environment (RH >50%, no air flow, temperature of 21-23° C.) for the same duration. Corneal fluorescein staining and
Animals were anesthetized by an intraperitoneal injection of a mixture of zoletil (6 mg/kg) and xylazine (3 mg/kg). Corneal epithelial injury was determined by staining with topical fluorescein (Fluor-I-Strip, Ayerst Laboratories, Philadelphia, Pa.). Corneal fluorescein staining was examined with a slit-lamp biomicroscope under cobalt blue light and photographed with a digital camera. Dye staining of the cornea was scored in a manner as follows: score 0 for no punctuate staining; score 1 when less than one third of the cornea was stained; score 2 when two thirds or less was stained; and score 3 when more than two thirds was stained (Horwath-Winter J 2013).
To determine whether PDSP have therapeutic effects in a desiccating stress (DS)-induced ocular surface defects, mice were housed at controlled environment chamber (CEC) for 14 days to create ocular surface disruption. After 14 days in CEC, we used mice with fluorescence scores that are above 2 for the first experiments (FIG. 1A). Subsequently, dry eyes were treated topically with PDSP at 25-200 μM (3 times/day) or PDSP vehicle (1% CMC in BSS) for another 5 days while maintaining the same desiccating stress protocol.
To investigate whether the PDSP can suppress DS-induced corneal epithelial disruption, we applied the 14-day desiccating stress protocol to mice, and treated these mice topically with PDSP 3 times a day.

[2] = test system: 4-HNE; test: 4-HNE immunohistochemistry (lipid peroxidation) in cornea and conjunctiva of CEC mice; assay type: in vivo; settings: PDSP from beginning of 14 days in CEC
Source text: For this test, mice were housed in CEC for 14 days and the PDSP treatment started at the beginning of housing in CEC. Then, the production of oxidative stress products (e.g., 4-hydroxy-2-nonenal, 4-HNE) was examined. 4-HNE was found throughout animal tissues, and in higher quantities during oxidative stress due to the increase in the lipid peroxidation. 4-HNE contains a reactive aldehyde, which may modify proteins. The 4-HNE-modified proteins may be detected with antibodies specific for the 4-HNE moiety.
Oxidative stress-induced lipid peroxidation was assessed by immunohistochemical detection of 4-hydroxy-2-nonenal (4HNE) in the cornea and conjunctiva. Formalin-fixed, paraffin-embedded eye specimens were deparaffinized in xylene and rehydrated in a graded series of ethanol concentrations. Slides were blocked with 10% goat serum for 60 min and then incubated with primary antibody against 4-HNE (1:100 dilution) (ab46545, Abcam) 4 hours at room temperature. The slides were subsequently incubated with the appropriate peroxidase-labeled goat immunoglobulin (1:500 dilution; Chemicon, Temecula, Calif.) for 20 min and then incubated with chromogen substrate (3,3′-diaminobenzidine) for 2 min before counterstaining with hematoxylin.

[3] = test system: MMP-9 activity; test: MMP-9 activity by gelatin zymography in NaCl-treated corneal epithelial cells; assay type: cell-based, rabbit; settings: PDSP pretreatment 20 hours, then hyperosmotic medium (463 mOsM) 24 hours
Description: Limbal stem cells were isolated from 6-month-old New Zealand white rabbits and continuously cultivated for 14 days by DMEM/F-12 basal medium based cell-suspension culture to achieve corneal-liked epithelial cell differentiation as previously described (Ho et al., 2013). To induce ROS or MMP-9 activity caused by hyperosmotic stress, cells were incubated overnight in hypertonic media (463 mOsm) achieved by addition of 90 mM NaCl. Cells cultured in DMEM/F-12 basal medium (309 mOsm) was used as negative control. To detect the preventive effect on hyperosmotic stress-induced ROS or MMP-9 activity, cells were pretreated with 10 μM PDSP for 20 hours before the treatment of NaCl.
To detect MMP-9 activity, 10 μL of culture medium was used to perform gelatin zymography as previous described method (Li et al., 2004). The band intensity was evaluated in zymography with a model GS-700 imaging densitometer (Bio-Rad Laboratories, Hercules, Calif.) and analyzed using Labworks 4.0 software.
To investigate the effect of PDSP on hyperosmotic stress-induced MMP-9 expression in corneal epithelial cells, cells were pretreated with the PDSP or control peptide (ConP) for 20 hours and then exposed the cells to hyperosmotic medium (463 mOsM) for another 24 hours. […] However, the PDSP pretreatment repressed the MMP-9 mRNA expression by a factor of 2-fold.

PDSP: 29mer, residues 93-121 of human PEDF: SLGAEQRTESIIHRALYYDLISSPDIHGT (SEQ ID NO:4) (listed as Homo sapiens)
corneal fluorescein staining score (0 to 3) ([1]; preventive: 100 μM PDSP topically 3 times a day from beginning of 14 days in CEC, vehicle 1.7±0.3): 0.7±0.2
corneal surface damage by fluorescein staining ([1]; therapeutic: CEC 14 days to induce dry eye, then peptide on the eyes for 5 days): essentially gone
4-HNE signal in the conjunctiva ([2]; versus vehicle): 4-HNE signal was clearly stronger in vehicle-treated eyes than in eyes subjected to the PDSP treatment
number of cells positively stained for 4-HNE in corneal epithelia ([2]; NS 1.9±0.6, vehicle 20.1±1.4): 5.3±1.0
repression of MMP-9 activity (gelatin zymography) [3]: 3 fold
